Data as given in the supplement of paper PMC10307832.

How the values were obtained:
Assay in all cases: relative viability (nuclei count vs DMSO), 5 days (fraction); higher = more cells survive
201T = tested on: 201T
Summary of the method: (§1)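 Lung cancer cell lines in 1536-well plates got either a single drug or a fixed anchor-drug dose together with five library-drug doses (not always all listed) in √10 steps, by pin tool, on the day after seeding. Nuclei were counted after 5 days, and relative viability is the treated-to-vehicle ratio of nuclei counts. Values are medians of duplicate plates.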

COR-L23 = tested on: COR-L23
Summary of the method: as §1

EPLC-272H = tested on: EPLC-272H
Summary of the method: as §1

H3255 = tested on: H3255
Summary of the method: as §1

HCC-44 = tested on: HCC-44
Summary of the method: as §1

LOU-NH91 = tested on: LOU-NH91
Summary of the method: as §1

NCI-H1650 = tested on: NCI-H1650
Summary of the method: as §1

NCI-H1734 = tested on: NCI-H1734
Summary of the method: as §1

NCI-H1793 = tested on: NCI-H1793
Summary of the method: as §1

NCI-H1993 = tested on: NCI-H1993
Summary of the method: as §1

NCI-H2023 = tested on: NCI-H2023
Summary of the method: as §1

NCI-H2085 = tested on: NCI-H2085
Summary of the method: as §1

NCI-H2170 = tested on: NCI-H2170
Summary of the method: as §1

NCI-H2347 = tested on: NCI-H2347
Summary of the method: as §1

NCI-H2405 = tested on: NCI-H2405
Summary of the method: as §1

NCI-H3122 = tested on: NCI-H3122
Summary of the method: as §1

NCI-H441 = tested on: NCI-H441
Summary of the method: as §1

NCI-H520 = tested on: NCI-H520
Summary of the method: as §1

NCI-H647 = tested on: NCI-H647
Summary of the method: as §1

PC-14 = tested on: PC-14
Summary of the method: as §1

RERF-LC-KJ = tested on: RERF-LC-KJ
Summary of the method: as §1

With `O=C(O)c1ccc(-c2c[nH]c3ncc(-c4ccccc4)cc23)cc1C1CCCC1` + CC1(C)CCC(c2ccc(Cl)cc2)=C(CN2CCN(c3ccc(C(=O)NS(=O)(=O)c4ccc(N[C@H](CCN5CCOCC5)CSc5ccccc5)c(S(=O)(=O)C(F)(F)F)c4)cc3)CC2)C1 [Navitoclax] (partner 0.5 µM) the relative viability (201T; first compound 0.04 µM) was 1.23, the relative viability (201T; first compound 0.1265 µM) was 1.26 and the relative viability (201T; first compound 0.4 µM) was 1.22. The relative viability (201T; first compound 1.265 µM) was 1.13, the relative viability (COR-L23; first compound 0.04 µM) was 1.01 and the relative viability (COR-L23; first compound 0.1265 µM) was 1.04. For the same compound, the relative viability (COR-L23; first compound 0.4 µM) was 1.09, the relative viability (COR-L23; first compound 1.265 µM) was 0.64 and the relative viability (EPLC-272H; first compound 0.04 µM) was 1.01. It also gave a relative viability (EPLC-272H; first compound 0.1265 µM) of 1.16, a relative viability (EPLC-272H; first compound 0.4 µM) of 1.06 and a relative viability (EPLC-272H; first compound 1.265 µM) of 0.811. It also gave a relative viability (H3255; first compound 0.04 µM) of 0.572, a relative viability (H3255; first compound 0.1265 µM) of 0.642 and a relative viability (H3255; first compound 0.4 µM) of 0.684. The relative viability (H3255; first compound 1.265 µM) was 0.463, the relative viability (HCC-44; first compound 0.04 µM) was 1.06 and the relative viability (HCC-44; first compound 0.1265 µM) was 1.01. It also gave a relative viability (HCC-44; first compound 0.4 µM) of 0.944, a relative viability (HCC-44; first compound 1.265 µM) of 0.914 and a relative viability (LOU-NH91; first compound 0.04 µM) of 0.759. For the same compound, the relative viability (LOU-NH91; first compound 0.1265 µM) was 0.73, the relative viability (LOU-NH91; first compound 0.4 µM) was 0.68 and the relative viability (LOU-NH91; first compound 1.265 µM) was 0.541. It also gave a relative viability (NCI-H1650; first compound 0.04 µM) of 1.17, a relative viability (NCI-H1650; first compound 0.1265 µM) of 1.14 and a relative viability (NCI-H1650; first compound 0.4 µM) of 0.774. For the same compound, the relative viability (NCI-H1650; first compound 1.265 µM) was 0.914, the relative viability (NCI-H1734; first compound 0.04 µM) was 0.706 and the relative viability (NCI-H1734; first compound 0.1265 µM) was 0.916. It also gave a relative viability (NCI-H1734; first compound 0.4 µM) of 0.878, a relative viability (NCI-H1734; first compound 1.265 µM) of 0.686 and a relative viability (NCI-H1793; first compound 0.04 µM) of 0.538. It also gave a relative viability (NCI-H1793; first compound 0.1265 µM) of 0.383, a relative viability (NCI-H1793; first compound 0.4 µM) of 0.494 and a relative viability (NCI-H1793; first compound 1.265 µM) of 0.286. It also gave a relative viability (NCI-H1993; first compound 0.04 µM) of 0.955, a relative viability (NCI-H1993; first compound 0.4 µM) of 0.986 and a relative viability (NCI-H1993; first compound 1.265 µM) of 0.795. For the same compound, the relative viability (NCI-H2023; first compound 0.04 µM) was 1.03, the relative viability (NCI-H2023; first compound 0.1265 µM) was 1.11 and the relative viability (NCI-H2023; first compound 0.4 µM) was 0.987. The relative viability (NCI-H2023; first compound 1.265 µM) was 0.904, the relative viability (NCI-H2085; first compound 0.04 µM) was 1.06 and the relative viability (NCI-H2085; first compound 0.1265 µM) was 1.1. For the same compound, the relative viability (NCI-H2085; first compound 0.4 µM) was 1.04, the relative viability (NCI-H2085; first compound 1.265 µM) was 0.72 and the relative viability (NCI-H2170; first compound 0.04 µM) was 0.605. The relative viability (NCI-H2170; first compound 0.1265 µM) was 0.64, the relative viability (NCI-H2170; first compound 0.4 µM) was 0.483 and the relative viability (NCI-H2170; first compound 1.265 µM) was 0.503. The relative viability (NCI-H2347; first compound 0.04 µM) was 0.778, the relative viability (NCI-H2347; first compound 0.1265 µM) was 0.821 and the relative viability (NCI-H2347; first compound 0.4 µM) was 0.761. For the same compound, the relative viability (NCI-H2347; first compound 1.265 µM) was 0.612, the relative viability (NCI-H2405; first compound 0.04 µM) was 0.944 and the relative viability (NCI-H2405; first compound 0.1265 µM) was 0.811. It also gave a relative viability (NCI-H2405; first compound 0.4 µM) of 0.864, a relative viability (NCI-H2405; first compound 1.265 µM) of 0.348 and a relative viability (NCI-H3122; first compound 0.04 µM) of 1.02. The relative viability (NCI-H3122; first compound 0.1265 µM) was 1, the relative viability (NCI-H3122; first compound 0.4 µM) was 1.03 and the relative viability (NCI-H3122; first compound 1.265 µM) was 0.976. It also gave a relative viability (NCI-H441; first compound 0.04 µM) of 0.751, a relative viability (NCI-H441; first compound 0.1265 µM) of 0.583 and a relative viability (NCI-H441; first compound 0.4 µM) of 0.365. The relative viability (NCI-H441; first compound 1.265 µM) was 0.469, the relative viability (NCI-H520; first compound 0.04 µM) was 1.1 and the relative viability (NCI-H520; first compound 0.1265 µM) was 1.08. The relative viability (NCI-H520; first compound 0.4 µM) was 1.18, the relative viability (NCI-H520; first compound 1.265 µM) was 0.836 and the relative viability (NCI-H647; first compound 0.04 µM) was 1.1. It also gave a relative viability (NCI-H647; first compound 0.1265 µM) of 1.13, a relative viability (NCI-H647; first compound 0.4 µM) of 1.04 and a relative viability (NCI-H647; first compound 1.265 µM) of 0.713. The relative viability (PC-14; first compound 0.04 µM) was 1.01, the relative viability (PC-14; first compound 0.1265 µM) was 1.1 and the relative viability (PC-14; first compound 0.4 µM) was 1.03. For the same compound, the relative viability (PC-14; first compound 1.265 µM) was 0.814, the relative viability (RERF-LC-KJ; first compound 0.04 µM) was 1.05 and the relative viability (RERF-LC-KJ; first compound 0.1265 µM) was 1.24. For the same compound, the relative viability (RERF-LC-KJ; first compound 0.4 µM) was 0.842 and the relative viability (RERF-LC-KJ; first compound 1.265 µM) was 0.772.
